Results on eight compounds are retold here after ChEMBL document CHEMBL4622917, “Structure Elucidation and Absolute Configuration Determination of Nortriterpenoids from Picramnia glazioviana” (J Nat Prod, 2020).

The test system of test [1] is MDA-MB-231. The experiment in a line: Cytotoxicity against human MDA-MB-231 cells assessed as reduction in cell viability at 12.5 to 100 uM incubated for 48 hrs by MTT assay relative to control. The class given is functional, cell-based. In general terms: Tetrazolium assays rely on reduction of a dye to a coloured formazan, in cell work by metabolically active cells.

Test [2] deals with MDA-MB-231. The test is described as follows: Cytotoxicity against human MDA-MB-231 cells incubated for 48 hrs by MTT assay. Format: functional, cell-based. As to conditions: MDA-MB-231, 48 h.
Test [3] deals with SK-BR-3. The experiment in a line: Cytotoxicity against human SKBR3 cells incubated for 48 hrs by MTT assay. Format: functional, cell-based. As to conditions: SK-BR-3, 48 h.
Test [4] relates to A549. The experiment in a line: Cytotoxicity against human A549 cells incubated for 48 hrs by MTT assay. As to conditions: A549, 48 h. Format: functional, cell-based.
The test system of test [5] is SK-BR-3. The test is described as follows: Cytotoxicity against human SKBR3 cells assessed as cell viability at 100 uM incubated for 48 hrs by MTT assay relative to control. The class given is functional. As to conditions: SK-BR-3, 48 h, read-out: Activity.
For test [6], the system named is MDA-MB-231. The test is described as follows: Cytotoxicity against human MDA-MB-231 cells assessed as cell viability at 100 uM incubated for 48 hrs by MTT assay relative to control. Format: functional. As to conditions: MDA-MB-231, 48 h, read-out: Activity.
The test system of test [7] is A549. The experiment in a line: Cytotoxicity against human A549 cells assessed as cell viability at 100 uM incubated for 48 hrs by MTT assay relative to control. Format: functional. As to conditions: A549, 48 h, read-out: Activity.
Test [8] has as its system MDA-MB-231. The test is described as follows: Cytotoxicity against human MDA-MB-231 cells assessed as reduction in cell viability at 50 to 100 uM incubated for 48 hrs by MTT assay relative to control. Format: functional, cell-based.
The test system of test [9] is MDA-MB-231. The experiment in a line: Cytotoxicity against human MDA-MB-231 cells assessed as reduction in cell viability at 25 to 50 uM incubated for 48 hrs by MTT assay relative to control. Format: functional, cell-based.
The subject of test [10] is A549. The test is described as follows: Cytotoxicity against human A549 cells assessed as reduction in cell viability at 25 to 100 uM incubated for 48 hrs by MTT assay relative to control. Format: functional, cell-based.
Test [11] concerns MDA-MB-231. The test is described as follows: Cytotoxicity against human MDA-MB-231 cells assessed as reduction in cell viability at 25 to 100 uM incubated for 48 hrs by MTT assay relative to control. Format: functional, cell-based.

By pIC50 is commonly meant the IC50 on a negative log10 scale, so that one unit is a factor of ten.

Molecules are shown by their SMILES. pIC50: −log10 of the molar value. Activity calls are given as the source filed them. The calls are words filed in the database; no cut-off is given here.

For the compound `CC1(C)O[C@H]2CC(=O)OC[C@]23[C@H]2CCC4=C([C@@H]5CCC(=O)O5)C(=O)CC[C@@]4(C)[C@]2(C)[C@H](OC(=O)c2ccccc2)C[C@@H]13`, the result with MDA-MB-231 [1] was Active. The pIC50 with MDA-MB-231 [2], with SK-BR-3 [3] and in the test with A549 [4] was < 5.00 in each case. Moreover, the viability at 100 µM in the test on SK-BR-3 [5], in the test on MDA-MB-231 [6] and in the test with A549 [7] was > 50% in each case.
In the case of `COC(=O)[C@H](C1=C2C=C[C@@H]3[C@@]45COC(=O)C[C@@H]4OC(C)(C)[C@@H]5C[C@@H](OC(=O)c4ccccc4)[C@@]3(C)[C@]2(C)CCC1=O)C(C)(C)CC(=O)O`, the result in the test with MDA-MB-231 [8] was Active. Besides, the pIC50 in the test with MDA-MB-231 [2], in the test with SK-BR-3 [3] and in the test on A549 [4] was < 5.00 throughout. Also, the viability at 100 µM in the test on SK-BR-3 [5], in the test on MDA-MB-231 [6] and in the test with A549 [7] was > 50% each time.
Regarding `COC(=O)[C@@H]1C2=C(CC[C@]3(C)C2=CC[C@@H]2[C@@]45COC(=O)C[C@@H]4OC(C)(C)[C@@H]5C[C@@H](O)[C@]23C)OC(=O)CC1(C)C`, the pIC50 with MDA-MB-231 [2], in the test on SK-BR-3 [3] and in the test with A549 [4] was < 5.00 each time. The viability at 100 µM in the test with SK-BR-3 [5], with MDA-MB-231 [6] and in the test on A549 [7] was > 50% in each case.
For the compound `COC(=O)[C@H](C1=C2[C@H]3O[C@H]3[C@@H]3[C@@]45COC(=O)C[C@@H]4OC(C)(C)[C@@H]5C[C@@H](OC(=O)c4ccccc4)[C@@]3(C)[C@]2(C)CCC1=O)C(C)(C)CC(=O)O`, the pIC50 with MDA-MB-231 [2], in the test with SK-BR-3 [3] and in the test on A549 [4] was < 5.00 in each case. The result in the test with MDA-MB-231 [9] was Active. Further, the viability at 100 µM in the test with SK-BR-3 [5], in the test with MDA-MB-231 [6] and in the test with A549 [7] was > 50% throughout.
For `COC(=O)CC(C)(C)[C@H](C(=O)OC)C1=C2CC[C@@H]3[C@@]45COC(=O)C[C@@H]4OC(C)(C)[C@@H]5C[C@@H](OC(=O)c4ccccc4)[C@@]3(C)[C@]2(C)CCC1=O`, the negative-log IC50 (pIC50) in the test with MDA-MB-231 [2], in the test with SK-BR-3 [3] and with A549 [4] was < 5.00 throughout. In addition, the viability at 100 µM with SK-BR-3 [5], in the test with MDA-MB-231 [6] and with A549 [7] was > 50% in each case.
As to `COC(=O)CC(C)(C)[C@H](C(=O)OC)C1=C2CC[C@@H]3[C@@]45COC(=O)C[C@@H]4OC(C)(C)[C@@H]5CC[C@@]3(C)[C@]2(C)CCC1=O`, the outcome with MDA-MB-231 [8] and with A549 [10] was Active. In addition, the pIC50 in the test with MDA-MB-231 [2], in the test on SK-BR-3 [3] and in the test on A549 [4] was < 5.00 in each case. The viability at 100 µM in the test with SK-BR-3 [5], in the test on MDA-MB-231 [6] and with A549 [7] was > 50% in each case.
Regarding `CC1(C)O[C@H]2CC(=O)OC[C@]23[C@H]2CCC4=C([C@H]5CCC(=O)O5)C(=O)CC[C@@]4(C)[C@]2(C)[C@H](OC(=O)c2ccccc2)C[C@@H]13`, the pIC50 in the test with MDA-MB-231 [2], in the test on SK-BR-3 [3] and with A549 [4] was < 5.00 each time. Moreover, the outcome with MDA-MB-231 [11] was Active. Also, the viability at 100 µM in the test on SK-BR-3 [5], with MDA-MB-231 [6] and in the test with A549 [7] was > 50% in each case.
Turning to `CC1(C)O[C@H]2CC(=O)OC[C@]23[C@H]2CCC4=C([C@H]5CCC(=O)O5)C(=O)CC[C@@]4(C)[C@]2(C)CC[C@@H]13`, the pIC50 in the test on MDA-MB-231 [2], in the test on SK-BR-3 [3] and with A549 [4] was < 5.00 in each case. Further, the viability at 100 µM in the test on SK-BR-3 [5], in the test with MDA-MB-231 [6] and with A549 [7] was > 50% in each case.
